Data as given in the NIST ThermoML archive (doi:10.1007/s10765-008-0410-4).
± gives the expanded uncertainty stated by the source.

Test: xn = mol fraction of the nth substance listed
Conditions: Liquid, Vibrating tube method

CCCCn1cc[n+](C)c1.F[B-](F)(F)F [1-butyl-3-methylimidazolium tetrafluoroborate] + CCO
Conditions | mass density [kg/m3]
348.15 K, 20740 kPa, x1 = 0.9152 | 1174.39 ± 1.2
348.15 K, 20870 kPa, x1 = 1 | 1185.63 ± 1.4
348.15 K, 21630 kPa, x1 = 0.3147 | 1023.15 ± 0.17
348.15 K, 25140 kPa, x1 = 0.9152 | 1176.67 ± 1.2
348.15 K, 25380 kPa, x1 = 0.0701 | 858.25 ± 0.24
348.15 K, 25410 kPa, x1 = 0.7452 | 1149.62 ± 0.82
348.15 K, 25430 kPa, x1 = 0.5384 | 1104.11 ± 0.46
348.15 K, 25850 kPa, x1 = 1 | 1188.16 ± 1.4
348.15 K, 26120 kPa, x1 = 0.3147 | 1025.95 ± 0.18
348.15 K, 29980 kPa, x1 = 0.9152 | 1179.1 ± 1.2
348.15 K, 30070 kPa, x1 = 0.7452 | 1152.07 ± 0.86
348.15 K, 30110 kPa, x1 = 1 | 1190.19 ± 1.5
348.15 K, 30220 kPa, x1 = 0.0701 | 861.8 ± 0.26
348.15 K, 30550 kPa, x1 = 0.3147 | 1028.55 ± 0.19
348.15 K, 30670 kPa, x1 = 0.5384 | 1107 ± 0.48
348.15 K, 35070 kPa, x1 = 0.9152 | 1181.59 ± 1.3
348.15 K, 35110 kPa, x1 = 1 | 1192.88 ± 1.5
348.15 K, 35140 kPa, x1 = 0.7452 | 1154.63 ± 0.89
348.15 K, 35170 kPa, x1 = 0.0701 | 865.16 ± 0.28
348.15 K, 35620 kPa, x1 = 0.5384 | 1109.59 ± 0.51
348.15 K, 35630 kPa, x1 = 0.3147 | 1031.33 ± 0.19
348.15 K, 39560 kPa, x1 = 0.5384 | 1111.54 ± 0.53
348.15 K, 39610 kPa, x1 = 1 | 1194.77 ± 1.6
348.15 K, 39740 kPa, x1 = 0.9152 | 1183.8 ± 1.3
348.15 K, 39940 kPa, x1 = 0.7452 | 1156.96 ± 0.93
348.15 K, 40010 kPa, x1 = 0.3147 | 1033.56 ± 0.2
348.15 K, 40030 kPa, x1 = 0.0701 | 868.18 ± 0.3
373.15 K, 470 kPa, x1 = 1 | 1157.24 ± 1.2
373.15 K, 510 kPa, x1 = 0.0701 | 812.28 ± 0.16
373.15 K, 520 kPa, x1 = 0.7452 | 1117.1 ± 0.63
373.15 K, 750 kPa, x1 = 0.5384 | 1069.65 ± 0.33
373.15 K, 780 kPa, x1 = 0.9152 | 1145.53 ± 0.98
373.15 K, 810 kPa, x1 = 0.3147 | 987.83 ± 0.16
373.15 K, 5060 kPa, x1 = 0.5384 | 1072.77 ± 0.34
373.15 K, 5090 kPa, x1 = 0.7452 | 1120.2 ± 0.66
373.15 K, 5140 kPa, x1 = 0.9152 | 1148.26 ± 1
373.15 K, 5350 kPa, x1 = 1 | 1160.25 ± 1.2
373.15 K, 5790 kPa, x1 = 0.0701 | 818.18 ± 0.18
373.15 K, 5820 kPa, x1 = 0.3147 | 992.08 ± 0.16
373.15 K, 10070 kPa, x1 = 0.5384 | 1076.3 ± 0.36
373.15 K, 10080 kPa, x1 = 1 | 1163.09 ± 1.2
373.15 K, 10570 kPa, x1 = 0.9152 | 1151.58 ± 1.1
373.15 K, 10610 kPa, x1 = 0.7452 | 1123.82 ± 0.69
373.15 K, 10950 kPa, x1 = 0.3147 | 996.25 ± 0.15
373.15 K, 11040 kPa, x1 = 0.0701 | 823.77 ± 0.2
373.15 K, 15080 kPa, x1 = 0.9152 | 1154.27 ± 1.1
373.15 K, 15130 kPa, x1 = 0.0701 | 827.92 ± 0.22
373.15 K, 15340 kPa, x1 = 0.5384 | 1079.9 ± 0.38
373.15 K, 15710 kPa, x1 = 1 | 1166.39 ± 1.3
373.15 K, 15730 kPa, x1 = 0.3147 | 999.95 ± 0.15
373.15 K, 15840 kPa, x1 = 0.7452 | 1127.11 ± 0.72
373.15 K, 19860 kPa, x1 = 0.3147 | 1003.02 ± 0.15
373.15 K, 20090 kPa, x1 = 0.7452 | 1129.7 ± 0.75
373.15 K, 20540 kPa, x1 = 0.9152 | 1157.45 ± 1.1
373.15 K, 20610 kPa, x1 = 0.5384 | 1083.37 ± 0.4
373.15 K, 20970 kPa, x1 = 1 | 1169.38 ± 1.3
373.15 K, 21220 kPa, x1 = 0.0701 | 833.79 ± 0.25
373.15 K, 24670 kPa, x1 = 0.9152 | 1159.79 ± 1.1
373.15 K, 25130 kPa, x1 = 0.0701 | 837.37 ± 0.27
373.15 K, 25460 kPa, x1 = 0.7452 | 1132.84 ± 0.79
373.15 K, 25820 kPa, x1 = 1 | 1172.07 ± 1.4
373.15 K, 25930 kPa, x1 = 0.5384 | 1086.76 ± 0.43
373.15 K, 25990 kPa, x1 = 0.3147 | 1007.35 ± 0.16
373.15 K, 29760 kPa, x1 = 0.9152 | 1162.61 ± 1.2
373.15 K, 30010 kPa, x1 = 0.5384 | 1089.27 ± 0.45
373.15 K, 30070 kPa, x1 = 0.7452 | 1135.43 ± 0.82
373.15 K, 30120 kPa, x1 = 1 | 1174.39 ± 1.4
373.15 K, 30260 kPa, x1 = 0.0701 | 841.81 ± 0.29
373.15 K, 30670 kPa, x1 = 0.3147 | 1010.47 ± 0.16
373.15 K, 35030 kPa, x1 = 0.5384 | 1092.26 ± 0.47
373.15 K, 35180 kPa, x1 = 0.7452 | 1138.19 ± 0.85
373.15 K, 35220 kPa, x1 = 0.3147 | 1013.34 ± 0.17
373.15 K, 35520 kPa, x1 = 0.0701 | 846.1 ± 0.31
373.15 K, 35530 kPa, x1 = 1 | 1177.22 ± 1.5
373.15 K, 36740 kPa, x1 = 0.9152 | 1166.35 ± 1.2
373.15 K, 39820 kPa, x1 = 0.3147 | 1016.1 ± 0.17
373.15 K, 39820 kPa, x1 = 1 | 1179.41 ± 1.5
373.15 K, 39840 kPa, x1 = 0.0701 | 849.4 ± 0.33
373.15 K, 39870 kPa, x1 = 0.9152 | 1167.99 ± 1.3
373.15 K, 39920 kPa, x1 = 0.7452 | 1140.63 ± 0.88
373.15 K, 39940 kPa, x1 = 0.5384 | 1095.08 ± 0.49
398.15 K, 860 kPa, x1 = 0.9152 | 1128.45 ± 0.95
398.15 K, 870 kPa, x1 = 1 | 1141.05 ± 1.1
398.15 K, 920 kPa, x1 = 0.5384 | 1049.06 ± 0.31
398.15 K, 940 kPa, x1 = 0.7452 | 1098.62 ± 0.61
398.15 K, 960 kPa, x1 = 0.3147 | 966.26 ± 0.17
398.15 K, 1010 kPa, x1 = 0.0701 | 788.85 ± 0.17
398.15 K, 5060 kPa, x1 = 0.5384 | 1052.44 ± 0.32
398.15 K, 5120 kPa, x1 = 0.7452 | 1101.74 ± 0.63
398.15 K, 5750 kPa, x1 = 0.0701 | 795.42 ± 0.19
398.15 K, 5840 kPa, x1 = 0.9152 | 1131.83 ± 0.98
398.15 K, 6350 kPa, x1 = 0.3147 | 971.33 ± 0.16
398.15 K, 6670 kPa, x1 = 1 | 1144.53 ± 1.2
398.15 K, 9630 kPa, x1 = 0.9152 | 1134.36 ± 1
398.15 K, 10070 kPa, x1 = 0.7452 | 1105.35 ± 0.66
398.15 K, 10150 kPa, x1 = 0.0701 | 801.14 ± 0.21
398.15 K, 10420 kPa, x1 = 0.5384 | 1056.68 ± 0.34
398.15 K, 10490 kPa, x1 = 1 | 1147.07 ± 1.2
398.15 K, 10930 kPa, x1 = 0.3147 | 975.46 ± 0.17
398.15 K, 15030 kPa, x1 = 0.5384 | 1060.22 ± 0.35
398.15 K, 15080 kPa, x1 = 0.7452 | 1108.88 ± 0.69
398.15 K, 15110 kPa, x1 = 0.0701 | 807.16 ± 0.24
398.15 K, 15620 kPa, x1 = 0.3147 | 979.51 ± 0.17
398.15 K, 15730 kPa, x1 = 1 | 1150.32 ± 1.2
398.15 K, 16470 kPa, x1 = 0.9152 | 1138.81 ± 1.1
398.15 K, 19970 kPa, x1 = 0.5384 | 1063.89 ± 0.37
398.15 K, 20040 kPa, x1 = 0.9152 | 1141.07 ± 1.1
398.15 K, 20150 kPa, x1 = 0.3147 | 983.26 ± 0.17
398.15 K, 20640 kPa, x1 = 0.7452 | 1112.68 ± 0.72
398.15 K, 20740 kPa, x1 = 0.0701 | 813.42 ± 0.27
398.15 K, 20980 kPa, x1 = 1 | 1153.78 ± 1.3
398.15 K, 24980 kPa, x1 = 0.5384 | 1067.49 ± 0.39
398.15 K, 25120 kPa, x1 = 0.9152 | 1144.22 ± 1.1
398.15 K, 25130 kPa, x1 = 0.0701 | 817.89 ± 0.29
398.15 K, 25140 kPa, x1 = 1 | 1156.3 ± 1.3
398.15 K, 25170 kPa, x1 = 0.3147 | 987.21 ± 0.16
398.15 K, 25370 kPa, x1 = 0.7452 | 1115.8 ± 0.75
398.15 K, 30030 kPa, x1 = 0.5384 | 1070.98 ± 0.41
398.15 K, 30280 kPa, x1 = 0.7452 | 1118.94 ± 0.78
398.15 K, 30410 kPa, x1 = 0.3147 | 991.12 ± 0.16
398.15 K, 30450 kPa, x1 = 0.9152 | 1147.45 ± 1.1
398.15 K, 30850 kPa, x1 = 0.0701 | 823.16 ± 0.32
398.15 K, 30890 kPa, x1 = 1 | 1159.52 ± 1.4
398.15 K, 35070 kPa, x1 = 0.5384 | 1074.35 ± 0.43
398.15 K, 35140 kPa, x1 = 0.7452 | 1121.93 ± 0.81
398.15 K, 35160 kPa, x1 = 0.3147 | 994.46 ± 0.16
398.15 K, 35740 kPa, x1 = 0.9152 | 1150.56 ± 1.2
398.15 K, 35810 kPa, x1 = 1 | 1162.4 ± 1.4
398.15 K, 35860 kPa, x1 = 0.0701 | 827.28 ± 0.35
398.15 K, 39560 kPa, x1 = 1 | 1164.38 ± 1.4
398.15 K, 39850 kPa, x1 = 0.3147 | 997.59 ± 0.16
398.15 K, 39860 kPa, x1 = 0.9152 | 1152.93 ± 1.2
398.15 K, 39920 kPa, x1 = 0.7452 | 1124.78 ± 0.84
398.15 K, 39940 kPa, x1 = 0.5384 | 1077.48 ± 0.45
398.15 K, 39990 kPa, x1 = 0.0701 | 830.32 ± 0.37
